# Conditions: buffer; pH 7.4; 200.0 µM
row,SMILES,solubility kinetic
1,CCC(C)[C@H](NC(=O)NCCC1=CCCCC1)C(=O)OC (stereo not given in full),> 44.5 µg/mL
2,O=C1COc2ccc(S(=O)(=O)N3CCc4ccccc43)cc2N1,2.4 µg/mL
3,CSc1cccc(NC(=O)CC(C)n2ccnc2)c1 (stereo not given),> 41.3 µg/mL
4,COC(=O)Cn1cc(C=C2C(=O)N(C)C(=O)N(C)C2=O)c2ccccc21,3.8 µg/mL
5,C=C(C)[C@@H]1CC=C(CN2CCN(Cc3ccccc3)CC2)CC1,9.9 µg/mL
6,Cn1c(SCc2cccc(C#N)c2)nc2ccccc2c1=O,0.4 µg/mL
7,C=CCn1c(C)nc2c(sc3nc4c(cc32)COC(C)(C)C4)c1=O,> 51.2 µg/mL
8,Cl.Nc1cnccc1Oc1cccc(C(F)(F)F)c1,> 43.6 µg/mL
9,COC(=O)c1sc(NC(=O)c2cc(C)on2)nc1C,35.5 µg/mL
10,COC(=O)c1ccccc1NC(=S)NC(C)=O,> 37.8 µg/mL
11,COc1cc(OC)cc(C(=O)OCC(=O)Nc2cccc(S(=O)(=O)NC3=NCCCCC3)c2)c1,33.3 µg/mL
12,CCOc1ccccc1C(=O)NCC(=O)OCC(=O)c1c(N)n(C)c(=O)n(C)c1=O,4.1 µg/mL
13,CN(C)CCCNc1nc(-c2ccccc2)nc2ccccc12.Cl,44.1 µg/mL
14,CC(=O)Nc1ccc(N/C=C/C(=O)c2ccccc2)cc1,4.1 µg/mL
15,Cc1ccc(C2NC(=S)NC3=C2C(=O)CCC3)cc1 (stereo not given),9 µg/mL
16,COc1cc2c(cc1OC)C(COc1ccc(F)cc1)NCC2 (stereo not given),43.8 µg/mL
17,C(=N\Nc1ccccn1)/c1cccnc1,> 29.7 µg/mL
18,COCc1cc(C)nc(Nc2ccccc2OC)c1C#N,0.3 µg/mL
19,Cc1cc2c(cc1C)C(c1cccc(F)c1)CC(=O)N2 (stereo not given),< 0.6 µg/mL
20,Cc1snc(SCc2c(F)cccc2Cl)c1C#N,< 0.3 µg/mL

row,SMILES,solubility kinetic
1,CCOc1ccc(NC(=O)CCn2ccnc2)cc1,> 38.9 µg/mL
2,O=c1cc(COc2ccccc2[N+](=O)[O-])nc2sccn12,2.7 µg/mL
3,Cc1ccc(C2CC3CCC(C2)N3Cc2ccccc2F)cc1 (stereo not given),26.8 µg/mL
4,O=C1NC(c2ccccc2Cl)=N/C1=C/c1ccco1,8.5 µg/mL
5,O=C(N/C(=C\c1ccc(Cl)cc1)C(=O)N1CCCCC1)c1ccco1,> 53.8 µg/mL
6,COC(=O)c1sc(NC(=O)c2ccncc2)nc1C,27.3 µg/mL
7,O=S(=O)(Cc1ccccc1Cl)NCc1ccccc1,32.1 µg/mL
8,CCN(CC)CCOCCOC(=O)C(CC)(CC)c1ccccc1,47.7 µg/mL
9,CC(=O)c1ccc(OC(C)C(=O)NCC2(N3CCOCC3)CCCCC2)cc1 (stereo not given),> 58.3 µg/mL
10,COc1cccc(CN2CCc3[nH]c(=S)[nH]c(=O)c3C2)c1,> 45.5 µg/mL
11,O=C(Cc1ccccc1F)NC1CCSc2ccccc21 (stereo not given),8.1 µg/mL
12,CC(C)(C)Nc1nc2cc([N+](=O)[O-])ccc2o1,10.9 µg/mL
13,COc1cccc(Nc2nc(C)cc(C)c2C(N)=O)c1,> 40.7 µg/mL
14,Cc1c(Cl)ccc(S(=O)(=O)NCCN2CCOCC2)c1Cl,> 53 µg/mL
15,CC(=O)Nc1c(-c2ccccc2)nc2cc(C)ccn12,29.4 µg/mL
16,Cn1c(=O)n(CCOc2ccc([N+](=O)[O-])cc2)c2ccccc21,1.1 µg/mL
17,Cc1ccc(S(=O)(=O)N[C@H](C(=O)NC2CCC(C)CC2)C(C)C)cc1 (stereo not given in full),24 µg/mL
18,COc1cc(OC)c(OC)cc1CNCc1ccco1,38.7 µg/mL
19,Cc1cc(C)c(C(=O)C(C)OC(=O)c2ccccn2)cc1C (stereo not given),17.7 µg/mL
20,Cc1nc(C)c(/C(O)=C\c2nc3ccc([N+](=O)[O-])cc3oc2=O)o1,> 49.4 µg/mL

row,SMILES,solubility kinetic
1,CC(=O)Nc1ccc(C(=O)NCC(c2ccco2)N(C)C)cc1 (stereo not given),44.7 µg/mL
2,COc1ccc(CCC(=O)OCC(=O)NCc2ccccc2)cc1,> 49.1 µg/mL
3,O=C(CSc1nc2ccc(Cl)cc2[nH]1)NC1CCCC1,9.3 µg/mL
4,COC(=O)c1c(C(=O)OC)c2ccccn2c1C(=O)c1ccccc1,6.2 µg/mL
5,Cc1cccc(-c2cnn(-c3ccccc3)c2N)c1,> 37.4 µg/mL
6,Cc1ccc(C2(O)CN3CCC2CC3)cc1.Cl (stereo not given),> 38.1 µg/mL
7,CC(=O)c1csc(COc2cc(Cl)cc(Cl)c2)n1,< 0.6 µg/mL
8,COc1ccc(C(=O)Nc2ccc(N3CCCC3)cc2)cc1Br,< 0.4 µg/mL
9,C=CCON1C(=O)C(=O)N(OCC=C)[C@H]2CCCC[C@H]21,> 42 µg/mL
10,Cc1ccc(S(=O)(=O)N2CCOCC2)cc1NC(=O)COC(=O)Cc1ccc(Cl)cc1,18.7 µg/mL
11,CCCOc1ccc(C(=O)Nc2cccnc2)cc1,36 µg/mL
12,Cc1ccc(C)c(NC(=O)/C(C#N)=C/c2ccc[nH]2)c1,3.7 µg/mL
13,O=C(CC(c1ccc(F)cc1)c1ccco1)Nc1nccs1 (stereo not given),14.7 µg/mL
14,COc1ccc(NC(=O)COC(=O)CC2CCCCC2)cc1,> 45.8 µg/mL
15,COc1ccc2oc(=Nc3cc(F)ccc3F)c(C(N)=O)cc2c1,< 0.4 µg/mL
16,Oc1ccc(C=Nc2ccc3ncccc3c2)c(O)c1,30.5 µg/mL
17,Cc1cc(=O)oc2cc(NC(=S)NCc3cccnc3)ccc12,8.9 µg/mL
18,COc1cc(/C=C(\C#N)C(=O)NCC2CCCO2)ccc1OCCC(C)C (stereo not given),7.9 µg/mL
19,O=C1Nc2ccccc2C1=Nc1cccc(Cl)c1,28.2 µg/mL
20,O=C(COC(=O)c1c[nH]c(=O)[nH]c1=O)Nc1ccccc1F,> 46.1 µg/mL
